Source: US9211310B2, “Use of a Chinese medicine composition in preparing medicaments for treating secondary prevention of myocardial infarction” (TASLY PHARMACEUTICAL GROUP CO., LTD, priority 2010, dated 2015)

System: patients after acute myocardial infarction
Assay: TCM symptom score, total and single (chest pain, chest tightness, short breath, fatigue, palpitation, spontaneous perspiration, pale complexion), same clinical trial
Format: in vivo, human
Parameters: total score of TCM symptom, Mean / total score of TCM symptom, Min / total score of TCM symptom, Max / total score of TCM symptom, Md / change of total score of TCM symptom, Mean / change of total score of TCM symptom, Max / change of total score of TCM symptom, Md: scale not given here
Settings: FAS
Source text: 3508 patients who were in accordance with the diagnostic standards of AMI for 28 days to 2 years and differentiated as Qi deficiency and blood stagnation syndrome by TCM were studied. 0.5 g Chinese medicine composition prepared by the method of EXAMPLE 1 (Coded as QSYQ) was administrated half an hour after meal, 3 times per day.
They included the overall survival time, angina pectoris score, TCM symptom score and life quality score, where angina pectoris score, TCM symptom score and life quality score were evaluated at randomization, in 1st, 3rd, 6th, 9th, 12th month after treatment and 18th month after follow-up.
The analysis method referred to the angina pectoris score.

[1] = 6 months after treatment-baseline
[2] = 9 months after treatment-baseline

CC(=O)Oc1ccccc1C(=O)O [Control group, aspirine]
change of fatigue −2, number of patients [1]: 108 | change of fatigue −4, % of patients [1]: (0.70%) | change of fatigue −4, number of patients [1]: 12 | change of fatigue −6, % of patients [1]: (0.00%) | change of fatigue −6, number of patients [1]: 0 | change of pale complexion 0, number of patients [1]: 1322 | change of pale complexion 0, percent of patients [1]: (77.40%) | change of pale complexion 1, number of patients [1]: 319 | change of pale complexion 1, percent of patients [1]: (18.68%) | change of pale complexion −1, number of patients [1]: 67 | change of pale complexion −1, percent of patients [1]: (3.92%) | change of palpitation 0, number of patients [1]: 1034 | change of palpitation 0, percent of patients [1]: (60.47%) | change of palpitation 1, number of patients [1]: 490 | change of palpitation 1, percent of patients [1]: (28.65%) | change of palpitation 2, number of patients [1]: 56 | change of palpitation 2, percent of patients [1]: (3.27%) | change of palpitation 3, number of patients [1]: 9 | change of palpitation 3, percent of patients [1]: (0.53%) | change of palpitation −1, percent of patients [1]: (6.78%) | change of palpitation −2, number of patients [1]: 5 | change of palpitation −2, percent of patients [1]: (0.29%) | change of palpitation −3, number of patients [1]: 0 | change of palpitation −3, percent of patients [1]: (0.00%) | change of short breath 0, % of patients [1]: (64.85%) | change of short breath 0, number of patients [1]: 1109 | change of short breath 2, % of patients [1]: (25.44%) | change of short breath 2, number of patients [1]: 435 | change of short breath 4, % of patients [1]: (2.98%) | change of short breath 4, number of patients [1]: 51 | change of short breath 6, % of patients [1]: (0.53%) | change of short breath 6, number of patients [1]: 9 | change of short breath −2, % of patients [1]: (5.96%) | change of short breath −2, number of patients [1]: 102 | change of short breath −4, % of patients [1]: (0.12%) | change of short breath −4, number of patients [1]: 2 | change of short breath −6, % of patients [1]: (0.12%) | change of short breath −6, number of patients [1]: 2 | change of spontaneous perspiration 0, number of patients [1]: 959 | change of spontaneous perspiration 0, percent of patients [1]: (56.11%) | change of spontaneous perspiration 1, number of patients [1]: 468 | change of spontaneous perspiration 1, percent of patients [1]: (27.38%) | change of spontaneous perspiration 2, number of patients [1]: 93 | change of spontaneous perspiration 2, percent of patients [1]: (5.44%) | change of spontaneous perspiration 3, number of patients [1]: 29 | change of spontaneous perspiration 3, percent of patients [1]: (1.70%) | change of spontaneous perspiration −1, number of patients [1]: 137 | change of spontaneous perspiration −1, percent of patients [1]: (8.02%) | change of spontaneous perspiration −2, number of patients [1]: 23 | change of spontaneous perspiration −2, percent of patients [1]: (1.35%) | change of spontaneous perspiration −3, number of patients [1]: 0 | change of spontaneous perspiration −3, percent of patients [1]: (0.00%) | change of total score of TCM symptom, Max [1]: 19.00 | change of total score of TCM symptom, Md [1]: −3.00 | change of total score of TCM symptom, Mean [1]: −3.76 | change of total score of TCM symptom, Min [1]: −33.00 | distribution of total score of TCM symptom: Medium, number of patients (9 months after treatment): 345 | distribution of total score of TCM symptom: Medium, percentage of patients (9 months after treatment): (23.03%) | distribution of total score of TCM symptom: Mild, number of patients (9 months after treatment): 1149 | distribution of total score of TCM symptom: Mild, percentage of patients (9 months after treatment): (76.70%) | distribution of total score of TCM symptom: Severe, number of patients (9 months after treatment): 4 | distribution of total score of TCM symptom: Severe, percentage of patients (9 months after treatment): (0.27%) | fatigue score 0, % of patients (9 months after treatment): (33.53%) | fatigue score 0, number of patients (9 months after treatment): 576 | fatigue score 2, % of patients (9 months after treatment): (60.24%) | fatigue score 2, number of patients (9 months after treatment): 1035 | fatigue score 4, % of patients (9 months after treatment): (5.12%) | fatigue score 4, number of patients (9 months after treatment): 88 | fatigue score 6, % of patients (9 months after treatment): (1.11%) | fatigue score 6, number of patients (9 months after treatment): 19 | pale complexion score 0, number of patients (9 months after treatment): 912 | pale complexion score 0, percent of patients (9 months after treatment): (53.08%) | pale complexion score 1, number of patients (9 months after treatment): 653 | pale complexion score 1, percent of patients (9 months after treatment): (38.01%) | pale complexion score 2, number of patients (9 months after treatment): 142 | pale complexion score 2, percent of patients (9 months after treatment): (8.27%) | pale complexion score 3, number of patients (9 months after treatment): 11 | pale complexion score 3, percent of patients (9 months after treatment): (0.64%) | palpitation score 0, number of patients (9 months after treatment): 581 | palpitation score 0, percent of patients (9 months after treatment): (33.82%) | palpitation score 2, number of patients (9 months after treatment): 929 | palpitation score 2, percent of patients (9 months after treatment): (54.07%) | palpitation score 4, number of patients (9 months after treatment): 179 | palpitation score 4, percent of patients (9 months after treatment): (10.42%) | palpitation score 6, number of patients (9 months after treatment): 29 | palpitation score 6, percent of patients (9 months after treatment): (1.69%) | short breath score 0, % of patients (9 months after treatment): (28.46%) | short breath score 0, number of patients (9 months after treatment): 489 | short breath score 3, % of patients (9 months after treatment): (57.86%) | short breath score 3, number of patients (9 months after treatment): 994 | short breath score 6, % of patients (9 months after treatment): (13.21%) | short breath score 6, number of patients (9 months after treatment): 227 | short breath score 9, % of patients (9 months after treatment): (0.47%) | short breath score 9, number of patients (9 months after treatment): 8 | spontaneous perspiration score 0, number of patients (9 months after treatment): 788 | spontaneous perspiration score 0, percent of patients (9 months after treatment): (45.87%) | spontaneous perspiration score 1, number of patients (9 months after treatment): 813 | spontaneous perspiration score 1, percent of patients (9 months after treatment): (47.32%) | spontaneous perspiration score 2, number of patients (9 months after treatment): 105 | spontaneous perspiration score 2, percent of patients (9 months after treatment): (6.11%) | spontaneous perspiration score 3, number of patients (9 months after treatment): 12 | spontaneous perspiration score 3, percent of patients (9 months after treatment): (0.70%) | total score of TCM symptom, Max (9 months after treatment): 37.00 | total score of TCM symptom, Md (9 months after treatment): 8.00 | total score of TCM symptom, Mean (9 months after treatment): 9.29 | total score of TCM symptom, Min (9 months after treatment): 0.00 | change of fatigue 0, % of patients [2]: (50.53%) | change of fatigue 0, number of patients [2]: 864 | change of fatigue 2, % of patients [2]: (33.45%) | change of fatigue 2, number of patients [2]: 572 | change of fatigue 4, % of patients [2]: (7.31%) | change of fatigue 4, number of patients [2]: 125 | change of fatigue 6, % of patients [2]: (1.17%) | change of fatigue 6, number of patients [2]: 20 | change of fatigue −2, % of patients [2]: (6.73%) | change of fatigue −2, number of patients [2]: 115 | change of fatigue −4, % of patients [2]: (0.76%) | change of fatigue −4, number of patients [2]: 13 | change of fatigue −6, % of patients [2]: (0.06%) | change of fatigue −6, number of patients [2]: 1 | change of pale complexion 0, number of patients [2]: 1284 | change of pale complexion 0, percent of patients [2]: (75.18%) | change of pale complexion 1, number of patients [2]: 365 | change of pale complexion 1, percent of patients [2]: (21.37%)
